Assay results taken from US20070244103A1, “Novel Compounds Having an Anti-Bacterial Activity” (Morphochem Aktiengesellschaft Fur Kombinatorische Chemie, priority 2004, published 2007).

Experiment: MIC of the examples against various organisms
Format: cell-based
Conditions: against at least two of the above organisms (12-strain panel)
Method: The MIC (μg/ml) of the examples against various organisms was determined: A. baumannii ATCC19606, E. cloacae ATCC23355, E. coli ATCC25922, K. pneumoniae ATCC27736, P. mirabilis ATCC29906, P. aeruginosa ATCC27853, S. maltophilia ATCC13637, S. aureus ATCC43300, S. epidermidis ATCC14990, S. haemolyticus ATCC29970, E. faecalis ATCC29212 and E. faecium ATC19434.

SMILES | MIC [µg/mL]
COc1cnc2cccc(C(O)CN3C4CCC3CC(NCc3ccc5c(c3)OCO5)C4)c2n1 (stereo not drawn) [Example 81, 2-{3-[(Benzo[1,3]dioxol-5-ylmethyl)-amino]-8-aza-bicyclo[3.2.1]oct-8-yl}-1-(3-methoxy-quinoxalin-5-yl)-ethanol] | ≤ 2
COc1cnc2cccc(C(O)CN3C4CCC3CC(NCc3ccc5nsnc5c3)C4)c2n1 (stereo not drawn) [Example 82, 2-{3-[(Benzo[1,2,5]thiadiazol-5-ylmethyl)-amino]-8-aza-bicyclo[3.2.1]oct-8-yl}-1-(3-methoxy-quinoxalin-5-yl)-ethanol] | ≤ 2
COc1cnc2cccc(C(O)CN3C4CCC3CC(NCc3cc5c(cc3F)SCC(=O)N5)C4)c2n1 (stereo not drawn) [Example 84, 7-Fluoro-6-({8-[2-hydroxy-2-(3-methoxy-quinoxalin-5-yl)-ethyl]-8-aza-bicyclo[3.2.1]oct-3-ylamino}-methyl)-4H-benzo[1,4]thiazin-3-one] | ≤ 2
COc1cnc2cccc(C(O)CN3C4CCC3CC(NCc3ccc5c(c3)NC(=O)CS5)C4)c2n1 (stereo not drawn) [Example 85, 6-({8-[2-Hydroxy-2-(3-methoxy-quinoxalin-5-yl)-ethyl]-8-aza-bicyclo[3.2.1]oct-3-ylamino}-methyl)-4H-benzo[1,4]thiazin-3-one] | ≤ 2
COc1cnc2cccc(C(O)CN3C4CCC3CC(NC/C=C/c3ccccc3)C4)c2n1 (stereo not drawn) [Example 86, 1-(3-Methoxy-quinoxalin-5-yl)-2-[3-((E)-3-phenylallylamino)-8-aza-bicyclo[3.2.1]oct-8-yl]-ethanol] | ≤ 2
COc1cnc2ccc(Cl)c(C(O)CN3CCCC(CNCc4ccc5c(c4)OCO5)C3)c2n1 (stereo not drawn) [Example 94, 2-(3-{[(Benzo[1,3]dioxol-5-ylmethyl)-amino]-methyl}-piperidin-1-yl)-1-(6-chloro-3-methoxy-quinoxalin-5-yl)-ethanol] | ≤ 2
COc1cnc2ccc(Cl)c(C(O)CN3CCCC(CNCc4ccc5c(c4)OCCO5)C3)c2n1 (stereo not drawn) [Example 95, 1-(6-Chloro-3-methoxy-quinoxalin-5-yl)-2-(3-{[(2,3-dihydro-benzo[1,4]dioxin-6-ylmethyl)-amino]-methyl}-piperidin-1-yl)-ethanol] | ≤ 2
COc1cnc2ccc(Cl)c(C(O)CN3CCCC(CNCc4cc5c(cn4)OCCO5)C3)c2n1 (stereo not drawn) [Example 97, 1-(6-Chloro-3-methoxy-quinoxalin-5-yl)-2-(3-{[(2,3-dihydro-[1,4]dioxino[2,3-c]-pyridin-7-ylmethyl)-amino]-methyl}-piperidin-1-yl)-ethanol] | ≤ 2
COc1cnc2ccc(Cl)c(C(O)CN3CCCC(CNC/C=C/c4ccccc4)C3)c2n1 (stereo not drawn) [Example 99, 1-(6-Chloro-3-methoxy-quinoxalin-5-yl)-2-{3-[((E)-3-phenyl-allylamino)-methyl]-piperidin-1-yl}-ethanol] | ≤ 2
COc1cnc2cccc(NC(=O)C3CCCC(CNCc4cc5c(cn4)OCCO5)C3)c2n1 (stereo not drawn) [Example 107, 3-{[(2,3-Dihydro-[1,4]dioxino[2,3-c]pyridin-7-ylmethyl)-amino]-methyl}-cyclohexanecarboxylic acid (3-methoxy-quinoxalin-5-yl)-amide] | ≤ 2
COc1ccc2cccc(NC(=O)C3CCCC(CNCc4ccc5c(n4)NC(=O)CS5)C3)c2n1 (stereo not drawn) [Example 108, 3-{[(3-Oxo-3,4-dihydro-2H-pyrido[3,2-b][1,4]thiazin-6-ylmethyl)-amino]-methyl}-cyclohexanecarboxylic acid (2-methoxy-quinolin-8-yl)-amide] | ≤ 2
COc1ccc2cccc(NC(=O)C3CCCC(CNCc4ccc5c(c4)OCCO5)C3)c2n1 (stereo not drawn) [Example 110, 3-{[(2,3-Dihydro-benzo[1,4]dioxin-6-ylmethyl)-amino]-methyl}-cyclohexanecarboxylic acid (2-methoxy-quinolin-8-yl)-amide] | ≤ 2
COc1ccc2cccc(NC(=O)C3CCCC(CNCc4cc5c(cn4)OCCO5)C3)c2n1 (stereo not drawn) [Example 111, 3-{[(2,3-Dihydro-[1,4]dioxino[2,3-c]pyridin-7-ylmethyl)-amino]-methyl}-cyclohexanecarboxylic acid (2-methoxy-quinolin-8-yl)-amide] | ≤ 2
COc1ccc2cccc(NC(=O)C3CCCC(CNCc4ccc5c(c4)NC(=O)CS5)C3)c2n1 (stereo not drawn) [Example 112, 3-{[(3-oxo-3,4-dihydro-2H-benzo[1,4]thiazin-6-ylmethyl)-amino]-methyl}-cyclohexanecarboxylic acid (2-methoxy-quinolin-8-yl)-amide] | ≤ 2

Now from value to compound:

MIC [µg/mL] | SMILES
≤ 2 | COc1cnc2cccc(C(O)CN3CCCC(CNCc4ccc5c(c4)NC(=O)CO5)C3)c2n1 (stereo not drawn) [Example 87, 6-[({1-[2-Hydroxy-2-(3-methoxy-quinoxalin-5-yl)-ethyl]-piperidin-3-ylmethyl}-amino)-methyl]-4H-benzo[1,4]oxazin-3-one]
≤ 2 | COc1cnc2cccc(C(O)CN3CCCC(CNCc4cc5c(cn4)OCCO5)C3)c2n1 (stereo not drawn) [Example 88, 2-(3-{[(2,3-Dihydro-[1,4]dioxino[2,3-c]pyridin-7-ylmethyl)-amino]-methyl}-piperidin-1-yl)-1-(3-methoxyquinoxalin-5-yl)-ethanol]
≤ 2 | COc1cnc2cccc(C(O)CN3CCCC(CNCc4cc5c(cc4F)SCC(=O)N5)C3)c2n1 (stereo not drawn) [Example 89, 7-Fluoro-6-[({1-[2-hydroxy-2-(3-methoxy-quinoxalin-5-yl)-ethyl]-piperidin-3-ylmethyl}-amino)-methyl]-4H-benzo[1,4]thiazin-3-one]
≤ 2 | COc1cnc2cccc(C(O)CN3CCCC(CNCc4ccc5c(n4)NC(=O)CS5)C3)c2n1 (stereo not drawn) [Example 90, 6-[({1-[2-Hydroxy-2-(3-methoxy-quinoxalin-5-yl)-ethyl]-piperidin-3-ylmethyl}-amino)-methyl]-4H-pyrido[3,2-b][1,4]thiazin-3-one]
≤ 2 | COc1cnc2cccc(C(O)CN3CCCC(CNCc4ccc5c(c4)NC(=O)CS5)C3)c2n1 (stereo not drawn) [Example 91, 6-[({1-[2-Hydroxy-2-(3-methoxy-quinoxalin-5-yl)-ethyl]-piperidin-3-ylmethyl}-amino)-methyl]-4H-benzo[1,4]thiazin-3-one]
≤ 2 | COc1cnc2cccc(C(O)CN3CCCC(CNCc4ccc5c(c4)OCCO5)C3)c2n1 (stereo not drawn) [Example 92, 2-(3-{[(2,3-Dihydro-benzo[1,4]dioxin-6-ylmethyl)-amino]-methyl}-piperidin-1-yl)-1-(3-methoxy-quinoxalin-5-yl)-ethanol]
≤ 2 | COc1cnc2ccc(Cl)c(C(O)CN3CCCC(CNCc4ccc5c(c4)NC(=O)CO5)C3)c2n1 (stereo not drawn) [Example 93, 6-[({1-[2-(6-Chloro-3-methoxy-quinoxalin-5-yl)-2-hydroxy-ethyl]-piperidin-3-ylmethyl}-amino)-methyl]-4H-benzo[1,4]oxazin-3-one]
≤ 2 | COc1cnc2ccc(Cl)c(C(O)CN3CCCC(CNCc4ccc5c(c4)NC(=O)CS5)C3)c2n1 (stereo not drawn) [Example 96, 6-[({1-[2-(6-Chloro-3-methoxy-quinoxalin-5-yl)-2-hydroxy-ethyl]-piperidin-3-ylmethyl}-amino)-methyl]-4H-benzo[1,4]thiazin-3-one]
≤ 2 | COc1cnc2ccc(Cl)c(C(O)CN3CCCC(CNCc4cc5c(cc4F)SCC(=O)N5)C3)c2n1 (stereo not drawn) [Example 98, 6-[({1-[2-(6-Chloro-3-methoxy-quinoxalin-5-yl)-2-hydroxy-ethyl]-piperidin-3-ylmethyl}-amino)-methyl]-7-fluoro-4H-benzo[1,4]thiazin-3-one]
≤ 2 | COc1cnc2cccc(NC(=O)C3CCCC(CNCc4ccc5c(n4)NC(=O)CS5)C3)c2n1 (stereo not drawn) [Example 105, 3-{[(3-Oxo-3,4-dihydro-2H-pyrido[3,2-b][1,4]thiazin-6-ylmethyl)-amino]-methyl}-cyclohexanecarboxylic acid (3-methoxy-quinoxalin-5-yl)-amide]
